How the values were obtained:
[1] = molecular target: T1, thrombin (Homo sapiens, UniProt P00734); conditions: literature values; cited from earlier work
[2] = in plasma in healthy human volunteers; intravenously; cited from earlier work
[3] = molecular target: T1, thrombin; test: Thrombin inhibition test of recombinant protein fragments generated by factor Xa; type: biochemical; parameters: Brown and cyan colors represent heavy and light chain of thrombin respectively; conditions: fragment 100 pM, thrombin 0.1 nM, S-2238 15 μM
Method: Recombinant protein (10 μM) was incubated with or without factor Xa 1 μM in phosphate buffer 50 mM containing NaCl 150 mM, and phosphatidylserine and phosphatidylcholine 50 μM, pH 7.4 for 18 h at 37° C. (A) Reaction mixtures were split through reverse phase HPLC column C-18. (B) Gathered peaks (H1-H5) were subjected to MALDI-TOF MS and thrombin inhibition test (see table 1, for correspondent peptide sequence). (C) Typical progress curves for hydrolysis of chromogenic substrate S-2238 15 μM by thrombin 0.1 nM in absence (trace Ctrl) and presence of recombinant protein fragment 100 pM (traces H1 and H3) or preserved recombinant protein (trace Scpt) in phosphate buffer 50 mM containing NaCl 150 mM and 0.1% of PEG 6000, pH 7.4 at 37° C. (D) Percentage of thrombin inhibition by recombinant protein and fragments thereof. Reaction conditions of percentage of thrombin inhibition were obtained from (C).
In addition, recombinant protein was incubated with factor Xa for 18 h and resulting peptides were split by reverse phase chromatography (FIG. 6A). Peaks (named as H1, H2, H3 H4 and H5) were gathered and undergone to mass spectrometry MALDI-TOF (FIG. 6B). In accordance with analysis of mass spectrometry, H1 corresponds to average mass of 5153.57 Da, H2 corresponds to average mass of 3667.50 Da and 4582.40 Da and H3 corresponds to average mass of 8220.55 Da and 6770.60 Da. Similarly, H4 corresponds to average mass of 7299.61 Da and 12427.54 Da and H5 corresponds to 16990.90, 12427.54 Da and 11843.17 Da (FIG. 6B, Table 1). Further, fractions (H1, H2, H3 and H4) were undergone to test of thrombin inhibition (FIG. 6C). Fractions H1, H2, H3 and H4 retained thrombin inhibition activity of about 50%, 45%, 70% and 80% respectively, of preserved no hydrolyzed recombinant protein (FIG. 6D). Peak H5 had mainly preserved recombinant protein, thus it was not considered for test of thrombin inhibition.

Molecule	Inhibition Type [1]	Ki [1]	Half-life [2]	thrombin inhibition activity retained, of preserved no hydrolyzed recombinant protein [3]
Bivalirudin	No competing	1.9 ± 2.6 nM	25 min	–
GKPQGHPHDALEARSDAVHTAVPKMPKGGHGGFEPIPIDYDERALEAR (Sculptin fragments generated by Xa factor) [H1, HPLC peak of recombinant protein hydrolyzed by factor Xa, average mass 5153.57 Da]	–	–	–	about 50%
CC1CNc2c(cccc2S(=O)(=O)N[C@@H](CCCNC(=N)N)C(=O)N2CC[C@@H](C)C[C@@H]2C(=O)O)C1 (stereo partly drawn) [Argatroban]	No competing	–	50 min	–
H4: HPLC peak of factor Xa hydrolysate, masses 7299.61 and 12427.54 Da (SEQ ID NO: 15 and 16) (protein, Sculptin fragments generated by Xa factor) chain 1: SDAVHTAVPKMPKGGHGGFEPIPIDYDERALEARSDAVHTAVPKMPKGGHGGFEPIPIDYDERALEAR chain 2: GKPQGHPHDALEARSDAVHTAVPKMPKGGHGGFEPIPIDYDERALEARSDAVHTAVPKMPKGGLGGFEPIPIDYDERALEARSDAVHTAVPKMPKGGHGGFEPIPIDYDERALEAR	–	–	–	~80%
H3: HPLC peak of factor Xa hydrolysate, masses 8220.55 and 6770.60 Da (SEQ ID NO: 13 and 14) (protein, Sculptin fragments generated by Xa factor) chain 1: SDAVHTAVPKMPKGGHGGFEPIPIDYDERALEARSDAVHTAVPKMPKGGHGGFEPIPIDYDERALHALEHHHHHH chain 2: SDAVHTAVPKMPKGGHGGFEPIPIDYDERALEARSDAVHTAVPKMPKGGHGGFEPIPIDYDER	–	–	–	~70%
H2: HPLC peak of factor Xa hydrolysate, masses 3667.50 and 4582.40 Da (SEQ ID NO: 11 and 12) (protein, Sculptin fragments generated by Xa factor) chain 1: SDAVHTAVPKMPKGGHGGFEPIPIDYDERALEAR chain 2: SDAVHTAVPKMPKGGHGGFEPIPIDYDERALHALEHHHHHH	–	–	–	~45%

From US12187785B2, “Recombinant protein and fragments thereof, method for producing said recombinant protein, synthetic gene and use of sculptin or recombinant protein for preparing a medicament or pharmaceutical composition for the prophylaxis and/or treatment of thromboembolic diseases or as a direct and specific …” (priority 2017, dated 2025)
